Assay results taken from patent US20200339548A1, “PYRIMIDINE DERIVATIVES AND THEIR USE FOR THE TREATMENT OF CANCER” (Adorx Therapeutics Limited, priority 2017, published 2020).
Where two headings read alike, the source gives them in different places.

Columns and labels:
[1] = target: T1, Adenosine A2a receptor (Homo sapiens, UniProt P29274); assay: Adenosine receptor TR-FRET binding assay, A2a; conditions: displacement of 100 nM CA200645, CHO cell membranes
T1 construct: expressed in transfected cells; host or cells: CHO cell membranes
T1 sequence (P29274 whole entry): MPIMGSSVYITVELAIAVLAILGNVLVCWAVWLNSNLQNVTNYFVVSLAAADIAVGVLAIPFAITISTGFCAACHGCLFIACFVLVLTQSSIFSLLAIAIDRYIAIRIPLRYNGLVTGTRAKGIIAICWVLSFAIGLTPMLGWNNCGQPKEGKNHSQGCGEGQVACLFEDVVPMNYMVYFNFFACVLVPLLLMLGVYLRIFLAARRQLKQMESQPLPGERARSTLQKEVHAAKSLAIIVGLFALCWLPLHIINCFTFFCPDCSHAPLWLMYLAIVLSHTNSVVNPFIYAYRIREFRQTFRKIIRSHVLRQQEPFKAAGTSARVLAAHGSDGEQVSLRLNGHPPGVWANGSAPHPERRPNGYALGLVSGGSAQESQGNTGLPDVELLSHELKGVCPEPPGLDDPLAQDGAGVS
Outline: (§1)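 Competition TR-FRET binding in CHO cell membranes expressing terbium-labelled human receptors, displacing fluorescent XAC (CA200645; 30 nM for A2b, 100 nM for A1, A2a, A3); 2 h at room temperature with saponin buffer, 1% DMSO. 665/620 nm ratio; non-specific with 10 μM XAC; Ki by Cheng–Prusoff from IC50.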

[2] = target: T2, Adenosine A3 receptor (Homo sapiens, UniProt P0DMS8); assay: Adenosine receptor TR-FRET binding assay, A3
T2 construct: expressed in transfected cells; host or cells: CHO cell membranes
T2 sequence (P0DMS8 1-318): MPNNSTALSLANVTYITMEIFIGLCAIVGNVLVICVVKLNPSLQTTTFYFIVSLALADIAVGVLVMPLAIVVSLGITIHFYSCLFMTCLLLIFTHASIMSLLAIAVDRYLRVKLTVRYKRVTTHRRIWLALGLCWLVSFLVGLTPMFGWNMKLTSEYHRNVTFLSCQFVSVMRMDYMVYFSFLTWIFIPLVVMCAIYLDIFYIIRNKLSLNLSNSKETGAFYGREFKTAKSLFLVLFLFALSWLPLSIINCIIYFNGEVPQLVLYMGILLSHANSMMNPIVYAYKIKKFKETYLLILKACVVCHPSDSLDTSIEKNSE
Procedure: All FRET binding experiments were conducted at room temperature in white 384-well plates, in assay binding buffer containing 1× LabMed (Cisbio, France), 100 μg/mL saponin, 1% DMSO and 0.02% pluronic acid. Binding of the fluorescently labelled Adenosine receptor antagonist XAC (CA200645, FRET acceptor) to terbium-labelled A1, A2a, A2b and A3 adenosine receptors (FRET donors) was detected by time-resolved FRET due to the close proximity of the donor and acceptor in a binding event. To investigate the ability of unlabelled test compounds to bind to Adenosine A1, A2a, A2b and A3 receptors, dose response curves were constructed that determined the ability of a range of concentrations to inhibit the binding of 30 nM CA200645 to the A2b receptor and 100 nM CA200645 to the A1, A2a, and A3 receptor.
Serial dilution (1:3 dilutions) of test compounds in neat DMSO and transfer of a 400 nL sample of test compound into the assay plate was carried out using the Mosquito (TTP Labtech, UK). The compound samples were incubated for 2 hours at room temperature with a fixed concentration of CA200645 defined for each receptor (see above) and CHO cell membranes containing the human Adenosine A1 (0.5 μg/well), A2a (0.3 μg/well), A2b (1 μg/well) or A3 (1 μg/well) receptor in 40 μL of assay buffer. Total and non-specific binding of CA200645 was determined in the absence and presence of 10 μM XAC, respectively.
Following 2 hours incubation, the level of CA200645 binding was detected on a Pherastar FSX (BMG Labtech, Germany) using standard TR-FRET settings. The terbium donor was excited with three laser flashes at a wavelength of 337 nm, and donor and acceptor emission was detected at 620 nm and 665 nm wavelengths, respectively. FRET ratios were obtained by multiplying the acceptor/donor ratio value by 10,000. Specific binding was determined by subtracting the non-specific binding FRET ratio from the total binding FRET ratio. Compound IC50 curves were analysed using GraphPad Prism 7.0 (GraphPad, USA) and Ki affinity values were determined from the obtained […] values using the method of Cheng and Prusoff.

[3] = target: T3, Adenosine A1 receptor (Homo sapiens, UniProt P30542); assay: Adenosine receptor TR-FRET binding assay, A1; conditions: Table 9, further testing; displacement of 100 nM CA200645, CHO cell membranes
T3 construct: expressed in transfected cells; host or cells: CHO cell membranes
T3 sequence (P30542 1-326): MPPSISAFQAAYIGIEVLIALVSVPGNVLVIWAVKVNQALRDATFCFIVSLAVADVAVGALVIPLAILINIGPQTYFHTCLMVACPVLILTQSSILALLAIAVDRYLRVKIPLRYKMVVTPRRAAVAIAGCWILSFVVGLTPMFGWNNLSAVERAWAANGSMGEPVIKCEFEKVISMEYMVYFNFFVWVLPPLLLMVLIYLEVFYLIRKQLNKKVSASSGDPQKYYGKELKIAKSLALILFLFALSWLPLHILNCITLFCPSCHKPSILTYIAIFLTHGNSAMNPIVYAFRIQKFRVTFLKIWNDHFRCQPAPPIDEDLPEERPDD
Outline: as §1

[4] = target: T4, Adenosine A2b receptor (Homo sapiens, UniProt P29275); assay: Adenosine receptor TR-FRET binding assay, A2b; conditions: Table 9, further testing; displacement of 30 nM CA200645, CHO cell membranes
T4 construct: expressed in transfected cells; host or cells: CHO cell membranes
T4 sequence (P29275 1-332): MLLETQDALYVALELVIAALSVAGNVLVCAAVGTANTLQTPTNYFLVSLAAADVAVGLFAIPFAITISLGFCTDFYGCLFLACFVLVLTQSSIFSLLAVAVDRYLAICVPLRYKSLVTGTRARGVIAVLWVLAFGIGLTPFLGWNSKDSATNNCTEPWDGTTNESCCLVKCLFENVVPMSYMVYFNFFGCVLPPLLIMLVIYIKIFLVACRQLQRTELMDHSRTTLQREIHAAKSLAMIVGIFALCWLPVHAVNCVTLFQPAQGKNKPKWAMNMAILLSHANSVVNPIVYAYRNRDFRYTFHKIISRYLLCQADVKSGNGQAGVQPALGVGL
Outline: as §1

[5] = Table 9, further testing, displacement of 100 nM CA200645, CHO cell membranes, read-out: A3 Ki

Row | SMILES | Ki ([1]; Table 8, Cheng and Prusoff) | Ki ([1]; Table 9, further testing) | Ki [3] | Ki [4] | Ki [2, 5] | Ki [2]
1 | COc1cc(CNC(=O)c2cnc(-c3cccc(F)c3)nc2N)cc(OC)c1 [Example 10.9, 4-Amino-N-[(3,5-dimethoxyphenyl)methyl]-2-(3-fluorophenyl)pyrimidine-5-carboxamide] | 661 nM | 661 nM | 811 nM | 1170 nM | – | 1160 nM
2 | Nc1nc(-c2cccc(F)c2)ncc1C(=O)NCc1cccc(C(F)(F)F)c1 [Example 10.11, 4-Amino-2-(3-fluorophenyl)-N-[[3-(trifluoromethyl)phenyl]methyl]pyrimidine-5-carboxamide] | 976 nM | 976 nM | 632 nM | 3190 nM | 1850 nM | –
3 | Cc1cccnc1CNC(=O)c1c(N)nc(-c2ccco2)nc1OCCO [Example 20.1, 4-Amino-2-(2-furyl)-6-(2-hydroxyethoxy)-N-[(3-methyl-2-pyridyl)methyl]pyrimidine-5-carboxamide] | – | 0.13 nM | 5.4 nM | 107 nM | 86 nM | –
4 | Cc1cccnc1CNC(=O)c1c(N)nc(-c2ccco2)nc1OCC(C)C [Example 20.3, 4-Amino-2-(2-furyl)-6-isobutoxy-N-[(3-methyl-2-pyridyl)methyl]pyrimidine-5-carboxamide] | – | 0.47 nM | 4.1 nM | 174 nM | 1.7 nM | –
5 | COCCOc1nc(-c2ccco2)nc(N)c1C(=O)NCc1ncccc1C [Example 20.6, 4-Amino-2-(2-furyl)-6-(2-methoxyethoxy)-N-[(3-methyl-2-pyridyl)methyl]pyrimidine-5-carboxamide] | – | 0.54 nM | 19 nM | 382 nM | 5.6 nM | –
6 | Cc1cccnc1CNC(=O)c1c(N)nc(-c2ccco2)nc1OCCCO [Example 20.8, 4-Amino-2-(2-furyl)-6-(3-hydroxypropoxy)-N-[(3-methyl-2-pyridyl)methyl]pyrimidine-5-carboxamide] | – | 0.199 nM | 7.5 nM | 165 nM | 24 nM | –
7 | CCCOc1nc(-c2ccco2)nc(N)c1C(=O)NCc1ncccc1C [Example 20.9, 4-Amino-2-(2-furyl)-N-[(3-methyl-2-pyridyl)methyl]-6-propoxy-pyrimidine-5-carboxamide] | – | 0.52 nM | 44 nM | 384 nM | 18 nM | –
8 | COCC(C)Oc1nc(-c2ccco2)nc(N)c1C(=O)NCc1ncccc1C (stereo not shown) [Example 20.12, 4-Amino-2-(2-furyl)-6-(2-methoxy-1-methyl-ethoxy)-N-[(3-methyl-2-pyridyl)methyl]pyrimidine-5-carboxamide] | – | 0.21 nM | 13 nM | 540 nM | 1.4 nM | –

More lines, in order of falling Ki ([1]; Table 9, further testing), values ahead:

Row | Ki ([1]; Table 8, Cheng and Prusoff) | Ki ([1]; Table 9, further testing) | Ki [3] | Ki [4] | Ki [2, 5] | SMILES | Ki [2]
9 | 36 nM | 36 nM | 400 nM | 536 nM | 371 nM | Nc1nc(-c2cccc(F)c2)ncc1C(=O)NCc1ncccc1Cl [Example 10.12, 4-Amino-N-[(3-chloro-2-pyridyl)methyl]-2-(3-fluorophenyl)pyrimidine-5-carboxamide] | –
10 | 20 nM | 20 nM | 314 nM | 3890 nM | 1190 nM | Cc1cccnc1CNC(=O)c1c(N)nc(-c2ccco2)nc1Cl [Example 13, 4-Amino-6-chloro-2-(2-furyl)-N-[(3-methyl-2-pyridyl)methyl]pyrimidine-5-carboxamide] | –
11 | – | 1.1 nM | 109 nM | 508 nM | 830 nM | CC(=O)NCCOc1nc(-c2ccco2)nc(N)c1C(=O)NCc1ncccc1C [Example 20, 4-(2-Acetamidoethoxy)-6-amino-2-(2-fury)-N-[(3-methyl-2-pyridyl)methyl]pyrimidine-5-carboxamide] | –
12 | – | 0.21 nM | 4 nM | 37 nM | 9.9 nM | Cc1cccnc1CNC(=O)c1c(N)nc(-c2ccco2)nc1OCC(F)(F)F [Example 20.2, 4-Amino-2-(2-furyl)-N-[(3-methyl-2-pyridyl)methyl]-6-(2,2,2-trifluoroethoxy)pyrimidine-5-carboxamide] | –
